These results are taken from patent US20040167217A1, “Neuroprotective effects of polyphenolic compounds” (priority 2003, published 2004).

Data set [1] deals with Male Wistar rats. The data set is described as follows: Lethality after intracerebroventricular T-BuOOH. It counts as in vivo, rat. The method, then: Male Wistar rats, weighing 140-180 g, were used for all experiments. Ten animals per experimental group were pre-administrated with curcumin, suitably suspended in distilled water, at the dose of 50 mg/kg per day, through oral intubation, for 7 days, before an intracerebroventricular injection of T-butylhydroperoxide (T-BuOOH) 2 μl of a 70% solution of phosphate buffered saline (PBS)^16. Lethality was assessed after administration of T-BuOOH at time points: 0, 2, 6, 12, and 24 h, and was expressed as the percentage of survival relative to the lethality observed in T-BuOOH plus Tween/saline vehicle (control) treated animals (FIG. 11A). After 30h the surviving animals were sacrificed and their brains quickly removed to investigate lipid peroxide formation as an index of oxidative challenge in neurons.
Male Wistar rats, weighing 140-180 g, were used for all experiments. […] Lethality was assessed after administration of T-BuOOH at time points: 0, 2, 6, 12, and 24 h, and was expressed as the percentage of survival relative to the lethality observed in T-BuOOH plus Tween/saline vehicle (control) treated animals (FIG. 12A). […]

Data set [2] deals with heme oxygenase. The data set is described as follows: Heme oxygenase activity assay in astrocytes. It counts as cell-based. On the procedure: Type 1 astrocytes (DI TNC1) were purchased from the American Type Culture Collection (Manassas, VA) and cultured in Dulbecco's modified Eagle's medium containing 4.5 g/l glucose, 2 mM glutamine, 100 units/ ml penicillin, and 0.1 mg/ml streptomycin and supplemented with 10% fetal bovine serum. Cells were grown in 75-cm^2 flasks and maintained at 37° C. in a humidified atmosphere of air and 5% CO2. Confluent cells were exposed to various concentrations of curcumin, CAPE, or Curcumin-95. After each treatment (6 or 24 h), cells were harvested for the determination of heme oxygenase activity, HO-1 protein expression, and intracellular glutathione. Astrocytes growing in 24 wells were exposed to polyphenolic compounds, and cell viability was determined at 24 h. Heme oxygenase activity was determined at the end of each treatment as described previously by Foresti, et al.^18 and Motterlini, et al.^19 Briefly, microsomes from harvested cells were added to a reaction mixture containing NADPH, glucose-6-phosphate dehydrogenase, rat liver cytosol as a source of biliverdin reductase, and the substrate hemin. The reaction mixture was incubated in the dark at 37° C. for 1 h and was terminated by the addition of 1 ml of chloroform. After vigorous vortex and centrifugation, the extracted bilirubin in the chloroform layer was measured by the difference in absorbance between 464 and 530 nm (ε=40 mM^−1cm^−1).

In data set [3] the test system is cerebellar granule cells. The data set is described as follows: Oligonucleosome formation (cell death detection ELISA), low K+. It counts as cell-based, rat. The conditions noted are these: for apoptosis (oligonucleosome formation) induced by low extracellular K+: curcumin 1, 5, 10, 25 and 50 μM. The method, then: (§1) Primary cultures of cortical neurons and cerebellar granule cells were prepared. In brief, cortical neurons were prepared from fetal brain from 17-day pregnant rat and cerebellar granule cells from 8-day old rats. Brain tissues were dissociated through trypsinization in 0.025% trypsin solution and trituration. Dissociated cells were collected through centrifugation and resuspended in standard medium containing: basal Eagle's medium containing 10% fetal bovine serum (FCS), 2 mM glutamine, genatmycin 0.05 mg/ml, and 25 mM KCI. Cells were plated at a density of 1.8×10^6 onto 35-mm dishes coated with 10 micrograms/ml ply-L-lysine.
(§2) To induce programmed cell death in […] granule cells, two different experimental well-established paradigms: serum deprivation and low K^+, were performed. In particular, neurons were cultured after their plating in serum free medium containing 25 mM KCI or in standard medium for 6 days and then agitating them in a medium containing 10% FCS and 5 mM KCI. In both of these paradigms, control cells were grown in medium containing 10% FCS and 25 mM KCI.
(§3) To induce apoptosis in cortical neurons, β-amyloid peptide (1-40), a molecule related to the pathogenesis of Alzheimer disease and a well known inducer of apoptosis was added.
For orientation: ELISA stands for enzyme-linked immunosorbent assay.

Data set [4] has as its system cerebellar granule cells. Nature of the data set: Oligonucleosome formation (cell death detection ELISA), serum deprivation. It counts as cell-based, rat. The conditions noted are these: for apoptosis (oligonucleosome formation) induced by the absence of FCS: curcumin 1, 5, 10, 25 and 50 μM. The method, then:
as §1, §2, §3

Data set [5] has as its system Type 1 astrocytes (DI TNC1). The data set is described as follows: Intracellular glutathione (GSH, GSSG) in astrocytes. It counts as cell-based.
Description: Type 1 astrocytes (DI TNC1) were purchased from the American Type Culture Collection (Manassas, VA) and cultured in Dulbecco's modified Eagle's medium containing 4.5 g/l glucose, 2 mM glutamine, 100 units/ ml penicillin, and 0.1 mg/ml streptomycin and supplemented with 10% fetal bovine serum. Cells were grown in 75-cm^2 flasks and maintained at 37° C. in a humidified atmosphere of air and 5% CO2. Confluent cells were exposed to various concentrations of curcumin, CAPE, or Curcumin-95. After each treatment (6 or 24 h), cells were harvested for the determination of heme oxygenase activity, HO-1 protein expression, and intracellular glutathione. […] GSH and GSSG levels were measured after 6- and 24- h exposure of astrocytes to curcumin and CAPE using a method previously described^19,20. Briefly, cells harvested in cold PBS were freeze-thawed three times, and an aliquot of this suspension was added to a buffer solution containing 12 mM EDTA and 10 mM 5,5′-dithiobis-(2-nitrobenzoic acid). Total glutathione was measured spectrophotometrically (optical density=412nm) using the glutathione reductase-recycling assay. To determine the amount of GSSG, an aliquot of the cell suspension was added to an equal volume of buffer containing EDTA and N-ethylmaleimide (10 mM). The sample was mixed and centrifuged, and the supernatant was passed through a C18 Sep-Pak cartridge (Waters, Milford, Mass.) to remove the excess N-ethylmaleimide. The sample was added to a cuvette containing 5,5′-dithiobis-(2-nitrobenzoic acid) and glutathione reductase, and the assay was performed as for the measurement of total glutathione. Intracellular glutathione was determined by comparison with a standard curve obtained with GSH and GSSG solutions and was expressed as nmoles/mg of protein.
In data set [6] the test system is Type 1 astrocytes (DI TNC1). The data set is described as follows: Cell viability of astrocytes, Alamar Blue. It counts as cell-based. The note with it: 24 h; for cytotoxic action in the presence of NAC: 1 mM NAC, curcumin 100 μM, CAPE 50 μM and 100 μM; for cell viability and cell morphology: concentration not exceeding 30 μM. The method, then: Type 1 astrocytes (DI TNC1) were purchased from the American Type Culture Collection (Manassas, VA) and cultured in Dulbecco's modified Eagle's medium containing 4.5 g/l glucose, 2 mM glutamine, 100 units/ ml penicillin, and 0.1 mg/ml streptomycin and supplemented with 10% fetal bovine serum. Cells were grown in 75-cm^2 flasks and maintained at 37° C. in a humidified atmosphere of air and 5% CO2. Confluent cells were exposed to various concentrations of curcumin, CAPE, or Curcumin-95. After each treatment (6 or 24 h), cells were harvested for the determination of heme oxygenase activity, HO-1 protein expression, and intracellular glutathione. Astrocytes growing in 24 wells were exposed to polyphenolic compounds, and cell viability was determined at 24 h. Astrocytes were exposed to curcumin or CAPE for the indicated times, and cell viability was assessed with the use of an Alamar Blue assay according to manufacturer's instructions (Serotec; Oxford, UK) as reported previously^11. At the end of each treatment, cells were washed twice and incubated for an additional 5 h in complete medium containing 1% Alamar Blue solution. Optical density in each sample was measured using a plate reader (Molecular Devices; Crawley, UK). The intensity of the color developed in the medium is proportional to the viability of cells, which is calculated as the difference in absorbance between 570 and 600 nm and expressed as percentage of control.

The mark [7] stands for this setting: high concentrations (50 and 100 μM).

With `O=C(/C=C/c1ccc(O)c(O)c1)OCCc1ccccc1` [CAPE, Caffeic acid phenethyl ester], the “protection against T-BuOOH induced lethality” value in data set [1] (20 mg/kg per day oral for 7 days before i.c.v. T-BuOOH) is “marked protection”. The “concentration of maximal enzyme activation” value in data set [2] worked out at 30 µM. The “enzyme activation and protein expression at 100 μM compared with 30 μM” value in data set [2] (100 μM) is listed as “significantly less effective”. In addition, the heme oxygenase activity entry in data set [2] (setting [7]) is reported as “unable to stimulate an increase in heme oxygenase activity”; in data set [2] (low concentrations 15-50 μM), “substantial increase”. Moreover, the “concentration with strongest / most effective anti-apoptotic effect” value in data set [3] and in data set [4] was 25 µM in each case. Besides, the “apoptosis (oligonucleosome formation) induced by low extracellular K+” value in data set [3] was “strong dose-dependent anti-apoptotic effect”. The “apoptosis (oligonucleosome formation) induced by the absence of FCS” value in data set [4] is listed as “strong dose-dependent anti-apoptotic effect”. The “intracellular GSH” value was “did not affect GSH” in data set [5] (6 h, 50 μM); “elevation of GSH” in data set [5] (6 h, 15 and 30 μM); “significant depletion of GSH” in data set [5] (24 h, 50 μM); “marked reduction” in data set [5] (24 h, 15 and 30 μM). The “intracellular GSSG” value in data set [5] (24 h, 50 μM) is “concomitant elevation in GSSG”. In addition, the “reduction in cell viability” value in data set [6] (50 μM) turned out to be 61%; in data set [6] (100 μM) it was 78%. Moreover, the “cytotoxic action in the presence of NAC” value in data set [6] is listed as “significantly attenuated the cytotoxic action”. The “cell viability and cell morphology” value in data set [6] is “fully preserved”.

In the case of `COc1cc(C=CC(=O)CC(=O)C=Cc2ccc(O)c(OC)c2)ccc1O` [curcumin, 1,7-bis[4-Hydroxy-3-methoxyphenyl]-1,6-heptadiene-3,5-dione], the “animals that died after T-BuOOH” value in data set [1] (50 mg/kg per day oral for 7 days before i.c.v. T-BuOOH, over 24 h (T-BuOOH alone 60%)) worked out at 20%. Also, the “increase in heme oxygenase activity” value stood at 7.4 fold in data set [2] (6 h, 15 μM) and 9.1 fold in data set [2] (6 h, 30 μM). Moreover, the heme oxygenase activity is listed as 2461±194 pmol of bilirubin/mg of protein/h in data set [2] (6 h, 30 μM (control 247±5)); 2392±22 pmol of bilirubin/mg of protein/h in data set [2] (6 h, 30 μM plus 1 mM NAC); 492±30 pmol of bilirubin/mg of protein/h in data set [2] (6 h, 50 μM, absence of NAC); 752±78 pmol of bilirubin/mg of protein/h in data set [2] (6 h, 50 μM, presence of 1 mM NAC); “unable to stimulate an increase in heme oxygenase activity” in data set [2] (setting [7]). Further, the “effect of NAC on the increase in heme oxygenase activity” value in data set [2] (6 h, 15 and 30 μM, 1 mM NAC) is “not significantly affected by the presence of NAC”. In addition, in data set [2] (higher concentrations (50-100 μM)), the “elevation in heme oxygenase activity” value was determined as 1.9 fold. The “concentration with strongest / most effective anti-apoptotic effect” value in data set [3] and in data set [4] was 25 µM each time. In data set [3], the “apoptosis (oligonucleosome formation) induced by low extracellular K+” value is “significantly reduced apoptosis”. Moreover, the “apoptosis (oligonucleosome formation) induced by the absence of FCS” value in data set [4] is “significantly reduced apoptosis”. In addition, the “glutathione oxidation (GSSG)” value in data set [5] (6 h, 50 μM) is “caused oxidation”. The “intracellular GSH” value in data set [5] (6 h, 50 μM) is given as “without affecting the GSH content”; in data set [5] (6 h, 15 and 30 μM), “significant increase”; in data set [5] (24 h, 15, 30, and 50 μM), “concentration-dependent decrease in GSH”. For the same molecule, the “intracellular GSSG” value in data set [5] (6 h, 15 and 30 μM) was “significant increase”; in data set [5] (24 h, 15, 30, and 50 μM) it was “gradual and substantial increase in GSSG levels”. Besides, the “reduction in cell viability” value in data set [6] (50 μM) is reported as 20%; in data set [6] (100 μM) it was 63%. Also, in data set [6], the “cytotoxic action in the presence of NAC” value was “significantly attenuated the cytotoxic action”. In addition, in data set [6], the “cell viability and cell morphology” value is on record as “fully preserved”.
